In the supplement of paper PMC11061612:

What was measured:
BE2-M17 (Neuroblastoma) = assay: Bliss excess, mean over the matrix (fraction); higher = more synergy
In short: (§1)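 After 24 hours at 37°C and 5% CO2 in 1536-well plates, cells in DMEM/F12 or RPMI plus 10% FBS received two-drug dose matrices for 72 hours. Viability came from CellTiter-Glo 2.0 luminescence and was scaled as inhibition, anchored at 0 by vehicle wells and at 1 by blank wells. Combination Emax is taken as the second-highest inhibition in the matrix, and Bliss excess as the observed combination effect less EA + EB − EA·EB, with EA and EB the single-agent effects.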

[1] = test system: BFTC-909 (Kidney Carcinoma); assay: as above
In short: as §1

BPH-1 (Non-Cancerous) = assay: as above
In short: as §1

[2] = test system: Detroit562 (Head and Neck Carcinoma); assay: as above
In short: as §1

[3] = test system: ESS-1 (Other Solid Carcinomas); assay: as above
In short: as §1

[4] = test system: HeLa (Cervical Carcinoma); assay: as above
In short: as §1

[5] = test system: HuCCT1 (Biliary Tract Carcinoma); assay: as above
In short: as §1

[6] = test system: HuH-7 (Hepatocellular Carcinoma); assay: as above
In short: as §1

[7] = test system: KMRC-20 (Kidney Carcinoma); assay: as above
In short: as §1

[8] = test system: L-428 (Hodgkin's Lymphoma); assay: as above
In short: as §1

MPP-89 (Mesothelioma) = assay: as above
In short: as §1

[9] = test system: NCI-H524 (Small Cell Lung Carcinoma); assay: as above
In short: as §1

[10] = test system: SAS (Oral Cavity Carcinoma); assay: as above
In short: as §1

[11] = test system: SNU-16 (Gastric Carcinoma); assay: as above
In short: as §1

[12] = test system: TGBC1TKB (Biliary Tract Carcinoma); assay: as above
In short: as §1

[13] = test system: BE-13 (T-Lymphoblastic Leukemia); assay: combination Emax (second highest fraction inhibited in the dose matrix, 72 h); higher = more inhibition; extreme values may be limits of the assay
In short: as §1

[14] = test system: CAL-33 (Oral Cavity Carcinoma); assay: as above
In short: as §1

KS-1 (Glioblastoma) = assay: as above
In short: as §1

[15] = test system: OE21 (Esophageal Squamous Cell Carcinoma); assay: as above
In short: as §1

[16] = test system: TGBC1TKB (Biliary Tract Carcinoma); assay: as above
In short: as §1
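For Bliss excess, mean over the matrix in this document: after 72 h of two-drug dosing.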

SMILES | Bliss excess (BE2-M17 (Neuroblastoma)) | Bliss excess [1] | Bliss excess (BPH-1 (Non-Cancerous)) | Bliss excess [2] | Bliss excess [3] | Bliss excess [4] | Bliss excess [5] | Bliss excess [6] | Bliss excess [7] | Bliss excess [8] | Bliss excess (MPP-89 (Mesothelioma)) | Bliss excess [9] | Bliss excess [10] | Bliss excess [11] | Bliss excess [12] | combination Emax [13] | combination Emax [14] | combination Emax (KS-1 (Glioblastoma)) | combination Emax [15] | combination Emax [16]
COc1nnc2ccc(N3CCC(c4ccc(OCCN5CCN(C)C(=O)[C@H]5C)cc4)CC3)nn12 [AZD5153] + CCN(CCO)CCCOc1ccc2c(Nc3cc(CC(=O)Nc4cccc(F)c4)[nH]n3)ncnc2c1 [AZD2811] (first compound max 1 µM, 7x7, partner max 1 µM) | 0.102 | 0.0272 | -0.0252 | -0.0804 | -0.0091 | -0.0457 | -0.0331 | -0.051 | -0.148 | 0.0085 | -0.0396 | -0.0138 | -0.0499 | 0.0728 | 0.0017 | 0.92 | 0.609 | 0.641 | 0.693 | 0.307
COc1nnc2ccc(N3CCC(c4ccc(OCCN5CCN(C)C(=O)[C@H]5C)cc4)CC3)nn12 [AZD5153] + C[C@@H]1COCCN1C2=NC(=NC(=C2)C3(CC3)[S@](=N)(=O)C)C4=C5C=CNC5=NC=C4 [AZD6738] (first compound max 1 µM, 7x7, partner max 10 µM) | 0.0293 | -0.0072 | 0.0343 | -0.0241 | -0.0192 | -0.0406 | -0.046 | 0.113 | 0.0821 | 0.009 | 0.0648 | 0.0142 | -0.0483 | -0.0408 | 0.0016 | 0.985 | 0.839 | 0.69 | 0.858 | 0.508
COc1nnc2ccc(N3CCC(c4ccc(OCCN5CCN(C)C(=O)[C@H]5C)cc4)CC3)nn12 [AZD5153] + Cc1c2c(nn1C)CSCc1cc(n(C)n1)CSc1cc(c3ccccc3c1)OCCCc1c(C(=O)O)n(C)c3c-2c(Cl)ccc13 [AZD5991] (first compound max 1 µM, 7x7, partner max 1 µM) | 0.0101 | -0.0034 | -0.0093 | -0.0459 | 0.0032 | 0.0151 | -0.0543 | 0.0546 | -0.0135 | -0.023 | -0.0399 | 0.0723 | -0.0191 | 0.0403 | 0.0069 | 0.998 | 0.628 | 0.629 | 0.83 | 0.289
COc1nnc2ccc(N3CCC(c4ccc(OCCN5CCN(C)C(=O)[C@H]5C)cc4)CC3)nn12 [AZD5153] + Cn1cnc2c(F)c(Nc3ccc(Br)cc3Cl)c(C(=O)NOCCO)cc21 [Selumetinib] (first compound max 1 µM, 7x7, partner max 10 µM) | 0.0139 | -0.0399 | -0.0385 | -0.0316 | -0.0065 | -0.0409 | 0.0453 | 0.006 | -0.08 | -0.0409 | 0.0192 | -0.0216 | 0.0163 | -0.0058 | 0.0517 | 0.672 | 0.708 | 0.645 | 0.861 | 0.37
Cc1c2c(nn1C)CSCc1cc(n(C)n1)CSc1cc(c3ccccc3c1)OCCCc1c(C(=O)O)n(C)c3c-2c(Cl)ccc13 [AZD5991] + C1CN(CCC1(C(=O)N[C@@H](CCO)C2=CC=C(C=C2)Cl)N)C3=NC=NC4=C3C=CN4 [Capivasertib] (first compound max 1 µM, 7x7, partner max 3 µM) | -0.0068 | 0.0265 | 0.0123 | -0.0269 | -0.0113 | 0.0059 | -0.0405 | -0.0116 | -0.0163 | -0.0007 | 0.0003 | 0.014 | -0.0165 | -0.0001 | -0.0159 | 0.38 | 0.347 | 0.338 | 0.631 | 0.292
Cc1c2c(nn1C)CSCc1cc(n(C)n1)CSc1cc(c3ccccc3c1)OCCCc1c(C(=O)O)n(C)c3c-2c(Cl)ccc13 [AZD5991] + C=CCn1c(=O)c2cnc(Nc3ccc(N4CCN(C)CC4)cc3)nc2n1-c1cccc(C(C)(C)O)n1 [AZD1775] (first compound max 1 µM, partner max 1 µM) | -0.03 | 0.0639 | -0.0071 | 0.0261 | -0.0715 | -0.0224 | 0.0676 | -0.0259 | -0.0011 | 0.0145 | -0.0732 | -0.0274 | -0.0144 | 0.0049 | 0.0066 | 1 | 0.802 | 0.464 | 0.719 | 0.303
Cc1c2c(nn1C)CSCc1cc(n(C)n1)CSc1cc(c3ccccc3c1)OCCCc1c(C(=O)O)n(C)c3c-2c(Cl)ccc13 [AZD5991] + CCN(CCO)CCCOc1ccc2c(Nc3cc(CC(=O)Nc4cccc(F)c4)[nH]n3)ncnc2c1 [AZD2811] (first compound max 1 µM, 7x7, partner max 1 µM) | 0.0668 | 0.0156 | 0.0077 | 0.0396 | -0.0014 | 0.0319 | 0.0128 | 0.0109 | 0.0023 | 0.0712 | 0.0367 | -0.0016 | -0.0092 | 0.0377 | -0.0141 | 0.929 | 0.911 | 0.286 | 0.522 | 0.192
